We go through 32 compounds from ChEMBL document CHEMBL5316299, “Discovery of Novel Drug-like PHGDH Inhibitors to Disrupt Serine Biosynthesis for Cancer Therapy” (J Med Chem, 2023).

SMILES strings stand for the structures.

As a reminder, the IC50 is the concentration that gives 50% inhibition. As a reminder, the half-life is the time needed for the level to fall by half in the phase considered.

In data set [1] the target is T1, D-3-phosphoglycerate dehydrogenase (Homo sapiens, UniProt O43175).
T1 sequence (O43175 whole entry): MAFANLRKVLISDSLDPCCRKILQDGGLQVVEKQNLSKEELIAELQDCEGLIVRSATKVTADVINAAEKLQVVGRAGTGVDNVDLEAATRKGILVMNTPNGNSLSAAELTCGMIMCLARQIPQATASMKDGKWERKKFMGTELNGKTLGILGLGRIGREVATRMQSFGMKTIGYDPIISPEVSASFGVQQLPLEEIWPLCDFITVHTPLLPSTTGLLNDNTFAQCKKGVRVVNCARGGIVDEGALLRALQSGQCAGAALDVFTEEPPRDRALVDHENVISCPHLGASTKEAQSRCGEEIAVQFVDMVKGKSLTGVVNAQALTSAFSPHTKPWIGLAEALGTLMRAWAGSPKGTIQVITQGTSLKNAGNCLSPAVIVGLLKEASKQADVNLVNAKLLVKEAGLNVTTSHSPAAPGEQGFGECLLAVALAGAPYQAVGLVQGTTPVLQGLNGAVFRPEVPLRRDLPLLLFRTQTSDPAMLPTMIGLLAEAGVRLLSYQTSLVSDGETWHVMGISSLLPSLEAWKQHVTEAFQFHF
Kind of data set: Inhibition of PHGDH (unknown origin) preincubated for 30 mins followed by substrate addition and measured after 5 mins.

In another data set the test system is MDA-MB-468. Kind of data set: Antiproliferative activity against human MDA-MB-468 cells expressing PHGDH assessed as reduction in cell viability measured for 72 hrs by CCK-8 assay. The data set is classed as functional, cell-based. As to conditions: MDA-MB-468, 72 h. (In general: Tetrazolium dyes change colour on reduction, which living cells bring about.)
For another data set, the system named is MCF-10A. Kind of data set: Antiproliferative activity against human MCF-10A cells assessed as reduction in cell viability measured for 72 hrs by CCK-8 assay. The data set is classed as functional, cell-based.
The test system of another data set is PC-9. Kind of data set: Antiproliferative activity against human PC-9 cells expressing PHGDH assessed as reduction in cell viability measured for 72 hrs by CCK-8 assay. It is filed as functional, cell-based. The note with it: PC-9, 72 h.
Another data set relates to HCC827. Kind of data set: Antiproliferative activity against human HCC827 cells expressing PHGDH assessed as reduction in cell viability measured for 72 hrs by CCK-8 assay. It is filed as functional, cell-based. The note with it: HCC827, 72 h.
In the next data set the test system is HCT-116. As to the kind of experiment: Antiproliferative activity against human HCT-116 cells expressing PHGDH assessed as reduction in cell viability measured for 72 hrs by CCK-8 assay. The data set is classed as functional, cell-based. The note with it: HCT-116, 72 h.
In another data set the test system is BT-20. Kind of data set: Antiproliferative activity against human BT-20 cells expressing PHGDH assessed as reduction in cell viability measured for 72 hrs by CCK-8 assay. It is filed as functional, cell-based. As to conditions: BT-20, 72 h.
In another data set the test system is NCI-H1975. As to the kind of experiment: Antiproliferative activity against human NCI-H1975 cells expressing PHGDH assessed as reduction in cell viability measured for 72 hrs by CCK-8 assay. It is filed as functional, cell-based. As to conditions: NCI-H1975, 72 h.
In data set [2] the target is D-3-phosphoglycerate dehydrogenase (Homo sapiens, UniProt O43175, D175A). As to the kind of experiment: Inhibition of PHGDH D175A mutant (unknown origin) preincubated for 30 mins followed by substrate addition and measured after 5 mins.
For data set [3], the target named is T1, D-3-phosphoglycerate dehydrogenase. Kind of data set: Inhibition of wild type PHGDH (unknown origin) preincubated for 30 mins followed by substrate addition and measured after 5 mins.
Data set [4] in a line: Microsomal stability in rat liver microsomes assessed as intrinsic clearance measured upto 60 mins by HPLC-MS/MS analysis. As to conditions: 1 h. It is filed as ADME, Microsome. Background: Liver microsomes are a subcellular fraction often used to study metabolism.
The nature of data set [5]: Microsomal stability in mouse liver microsomes assessed as intrinsic clearance measured upto 60 mins by HPLC-MS/MS analysis. The data set is classed as ADME, Microsome. The note with it: 1 h.
A short description of data set [6]: Microsomal stability in human liver microsomes assessed as half life measured upto 60 mins by HPLC-MS/MS analysis. It is filed as ADME, Microsome.
The nature of data set [7]: Microsomal stability in mouse liver microsomes assessed as half life measured upto 60 mins by HPLC-MS/MS analysis. It is filed as ADME, Microsome.
Data set [8] in a line: Microsomal stability in human liver microsomes assessed as intrinsic clearance measured upto 60 mins by HPLC-MS/MS analysis. It is filed as ADME, Microsome. The note with it: 1 h.
Data set [9] can be described thus: Microsomal stability in rat liver microsomes assessed as half life measured upto 60 mins by HPLC-MS/MS analysis. The data set is classed as ADME, Microsome.

D-3-phosphoglycerate dehydrogenase (Homo sapiens, UniProt O43175, D175A), sequence (O43175 2-533 D175A limits assumed): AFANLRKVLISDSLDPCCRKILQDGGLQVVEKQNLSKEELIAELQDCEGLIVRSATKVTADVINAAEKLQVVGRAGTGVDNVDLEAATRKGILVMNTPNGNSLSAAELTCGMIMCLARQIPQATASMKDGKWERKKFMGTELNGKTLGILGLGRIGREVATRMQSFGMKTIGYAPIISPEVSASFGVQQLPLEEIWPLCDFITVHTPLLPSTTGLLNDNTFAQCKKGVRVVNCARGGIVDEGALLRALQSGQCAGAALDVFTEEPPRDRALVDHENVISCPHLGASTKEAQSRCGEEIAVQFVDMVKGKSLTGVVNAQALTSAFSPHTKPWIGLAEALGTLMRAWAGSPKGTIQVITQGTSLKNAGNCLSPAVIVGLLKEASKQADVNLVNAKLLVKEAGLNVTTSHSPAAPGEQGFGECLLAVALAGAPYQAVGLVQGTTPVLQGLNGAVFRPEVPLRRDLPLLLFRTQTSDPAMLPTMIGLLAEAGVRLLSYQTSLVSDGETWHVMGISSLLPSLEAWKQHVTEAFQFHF

Regarding `CC(=O)c1cccc(NS(=O)(=O)c2ccc(C(=O)Nc3cc(-c4ccccc4)cs3)cc2)c1`, the midpoint of inhibition in data set [1], the IC50, lay at 12.9 µM.

In data set [1], `CC(=O)c1cccc(NS(=O)(=O)c2ccc(C(=O)Nc3nc(-c4ccc(F)cc4F)cs3)cc2)c1` displayed a concentration for half-maximal inhibition (IC50) of 6.7 µM.

With `O=C(O)CNS(=O)(=O)c1ccc(C(=O)Nc2nc(-c3ccccc3)cs2)cc1`, the 50% inhibitory concentration (IC50) in data set [1] came to 15.8 µM.

Regarding `CC(=O)c1cccc(NS(=O)(=O)c2ccc(C(=O)Nc3nc(-c4ccccc4F)cs3)cc2)c1`, the IC50 came out at 3.8 µM in [1], 65.4 µM in the data set on MDA-MB-468 and 62.9 µM with MCF-10A.

`CC(=O)c1cccc(NS(=O)(=O)c2ccc(C(=O)Nc3nc(-c4cccc(O)c4)cs3)cc2)c1`: the IC50 with PC-9 was more than 100 µM; in the data set with HCC827, 55.7 µM; in the data set with HCT-116 it was 84.7 µM; in the data set with BT-20, 69.3 µM; in the data set on MDA-MB-468 it was 69.3 µM; in the data set on NCI-H1975, 89.7 µM.

Consider `O=C(Nc1nc(-c2ccccc2)cs1)c1ccc(S(=O)(=O)O)cc1`, for which the IC50 in data set [1] was 12.6 µM; with MDA-MB-468 it was more than 100 µM.

For the compound `CC(=O)c1cccc(NS(=O)(=O)c2ccc(C(=O)Nc3nc(-c4ccccc4)cs3)cc2)c1`, the IC50 in data set [1] was 5.33 µM; in the data set with MDA-MB-468 it was 8.4 µM; in the data set on MCF-10A, more than 100 µM.

With `COCCNS(=O)(=O)c1ccc(C(=O)Nc2nc(-c3ccccc3)cs2)cc1`, the IC50 in [1] was determined as 17.8 µM.

`O=C(Nc1nc(-c2ccccc2)cs1)c1ccc(S(=O)(=O)N2CCC(CCO)CC2)cc1` yielded an IC50 in data set [1] of 12.2 µM.

In data set [1], `CN1CCN(CCNS(=O)(=O)c2ccc(C(=O)Nc3nc(-c4ccccc4)cs3)cc2)CC1` came in with a 50% inhibitory concentration (IC50) of 11.4 µM.

On to `CC(=O)N1CCC(NS(=O)(=O)c2ccc(C(=O)Nc3nc(-c4ccccc4)cs3)cc2)CC1`, for which the concentration for half-maximal inhibition (IC50) is 6.81 µM in data set [1], 72.3 µM with MDA-MB-468 and more than 100 µM with MCF-10A.

On to `O=C(O)Cc1cccc(NS(=O)(=O)c2ccc(C(=O)Nc3nc(-c4ccccc4)cs3)cc2)c1`, for which the IC50 is 7.89 µM in data set [1], more than 100 µM with MDA-MB-468 and more than 100 µM with MCF-10A.

As for `COC(=O)CS(=O)(=O)c1ccc([C@@H](CO)NC(=O)c2cc3c(Cl)cc(C)cc3n2C)cc1`, the figures for the half-inhibitory concentration (IC50) (in data set [1]; with MDA-MB-468; in the data set with MCF-10A) were 0.162 µM, 27.9 µM and more than 100 µM, respectively.

Regarding `CN(C)CCNS(=O)(=O)c1ccc(C(=O)Nc2nc(-c3ccccc3)cs2)cc1`, the half-maximal inhibitory concentration (IC50) in data set [1] was 15.7 µM.

For the compound `CC(=O)c1cccc(NS(=O)(=O)c2ccc(C(=O)Nc3nc(-c4ccc(F)c(F)c4)cs3)cc2)c1`, in [1], the midpoint of inhibition, the IC50, lay at 17.2 µM.

As for `CN1CCN(c2cccc(NS(=O)(=O)c3ccc(C(=O)Nc4nc(-c5ccccc5)cs4)cc3)c2)CC1`, the IC50 was 6.16 µM in data set [1], 9.7 µM with MDA-MB-468 and 25.5 µM in the data set with MCF-10A.

Take `Cc1cc(Cl)c2cc(C(=O)N[C@H](CO)c3ccc(S(=O)(=O)CC(=O)O)cc3)n(C)c2c1`: the half-inhibitory concentration (IC50) in [2] is more than 3 µM; in [1], 0.106 µM; in the data set on MDA-MB-468, more than 100 µM; in [3] it was 0.1 µM; with MCF-10A, more than 100 µM.

For the compound `O=C(Nc1nc(-c2ccccc2)cs1)c1ccc(S(=O)(=O)Cl)cc1`, the IC50 in data set [1] stood at 18.5 µM.

Consider `CC(=O)c1cccc(NS(=O)(=O)c2ccc(C(=O)Nc3nc(-c4ccc(F)cc4)cs3)cc2)c1`, for which the results for the IC50 (in data set [1]; with MDA-MB-468; with MCF-10A) were 2.6 µM, 11.7 µM and 100 µM, respectively.

Consider `O=C(Nc1nc(-c2ccccc2)cs1)c1ccc(S(=O)(=O)Nc2ccccc2)cc1`, for which the figures for the half-maximal inhibitory concentration (IC50) (in data set [1]; in the data set on MDA-MB-468; in the data set with MCF-10A) were 6.5 µM, 11.6 µM and more than 100 µM, respectively.

For `COc1ccccc1-c1csc(NC(=O)c2ccc(S(=O)(=O)Nc3cccc(C(C)=O)c3)cc2)n1`, the CLH in data set [4] turned out to be 838.8 mL/min/g; in data set [5] it was 153 mL/min/g; in [8] it was 82 mL/min/g. Besides, the IC50 was 2.2 µM in data set [1], 5.5 µM in the data set with MDA-MB-468 and more than 100 µM with MCF-10A. The half-life in [6] stood at 26 min; in [7], 13.7 min; in [9], 2.5 min.

In [1], `O=C(Nc1nc(-c2ccccc2)cs1)c1ccc(S(=O)(=O)NCCN2CCOCC2)cc1` returned a half-maximal inhibitory concentration (IC50) of 10.8 µM.

Regarding `CCOC(=O)c1sc(NC(=O)c2ccco2)c(SC#N)c1C`, the results for the IC50 with MDA-MB-468 and in the data set on MCF-10A were 20.9 µM and 57.2 µM, respectively.

With `CC(=O)c1cccc(NS(=O)(=O)c2ccc(C(=O)Nc3nc(-c4cccc(C)c4)cs3)cc2)c1`, the CLH in [4] turned out to be 2378.4 mL/min/g; in [5] it was 835.6 mL/min/g; in data set [8], 1589.7 mL/min/g. Besides, the IC50 in [1] is 2.4 µM; in the data set with MDA-MB-468, 3 µM; in the data set on MCF-10A it was 100 µM. The half-life in data set [6] is 1 min; in [7], 2.5 min; in data set [9] it was 0.9 min.

In the case of `CNC(=O)c1cccc(NS(=O)(=O)c2ccc(C(=O)Nc3nc(-c4ccccc4)cs3)cc2)c1`, the figures for the half-inhibitory concentration (IC50) (in data set [1]; with MDA-MB-468; with MCF-10A) were 4.96 µM, 15 µM and more than 100 µM, respectively.

Take `O=C(Nc1nc(-c2ccccc2)cs1)c1ccc(S(=O)(=O)Nc2cccc(CO)c2)cc1`: the figures for the IC50 (in [1]; with MDA-MB-468; in the data set on MCF-10A) were 7.74 µM, 10.1 µM and more than 100 µM, respectively.

For `O=C(Nc1nc(-c2ccccc2)cs1)c1ccc(S(=O)(=O)Nc2cccc(N3CCOCC3)c2)cc1`, the figures for the concentration for half-maximal inhibition (IC50) (in data set [1]; in the data set on MDA-MB-468; in the data set on MCF-10A) were 7.04 µM, more than 100 µM and more than 100 µM, respectively.

For `O=C(O)c1cccc(NS(=O)(=O)c2ccc(C(=O)Nc3nc(-c4ccccc4)cs3)cc2)c1`, the concentration for half-maximal inhibition (IC50) in data set [1] is 3.59 µM; with MDA-MB-468, more than 100 µM; with MCF-10A, more than 100 µM.

Regarding `COc1cccc(-c2csc(NC(=O)c3ccc(S(=O)(=O)Nc4cccc(C(C)=O)c4)cc3)n2)c1`, the CLH in data set [4] is 2500.2 mL/min/g; in [5], 2471.9 mL/min/g; in data set [8], 2485.8 mL/min/g. The IC50 in data set [1] is 4.8 µM; in the data set on MDA-MB-468, 4.8 µM; with MCF-10A, 100 µM. The half-life worked out at 0.85 min in [6], 0.85 min in [7] and 0.84 min in [9].

For `Cc1cc(C)nc(NS(=O)(=O)c2ccc(C(=O)Nc3nc(-c4ccccc4)cs3)cc2)n1`, the 50% inhibitory concentration (IC50) in data set [1] amounted to 3.19 µM; in the data set with MDA-MB-468 it was 30.1 µM; in the data set with MCF-10A, 86.5 µM.

With `O=C(Nc1nc(-c2ccccc2)cs1)c1ccc(S(=O)(=O)Nc2cccc(CCO)c2)cc1`, the results for the IC50 (in data set [1]; with MDA-MB-468; with MCF-10A) were 7.49 µM, 8.1 µM and 93.4 µM, respectively.

As to `O=C(Nc1nc(-c2ccccc2)cs1)c1ccc(S(=O)(=O)N2CCC(C(=O)O)CC2)cc1`, in data set [1], half-maximal inhibition (IC50) required 13 µM.
